Reference: patent US3935309A, “Synergistic combinations of phosphonomycin and bacteriostatic agents” (Merck & Co., Inc., priority 1974, dated 1976)
“And” between values parts separate entries of the source, which are not always exact repeats. Equal entries are not always repeated.

Legend:
Staphylococcus aureus = assay: criss-cross MIC method in nutrient broth (Example 2); assay type: cell-based; conditions: 2nd substance chloramphenicol (CLM)
Procedure: This method involved the simultaneous determination of the MIC (minimum inhibitory concentration) of each member of a pair of antibiotics and of combinations of the two in nutrient broth (NB) containing 0.2% yeast extract (YE). Serial two-fold dilutions were made throughout the experiment, and the starting inoculum consisted of approximately 25,000 cells/ml. of Staphylococcus aureus. Incubation was at 37°C. for 24 hours. Identical experiments were performed on two different days.

[1] = tested on: test organisms of Example 1; assay: Summary of the twelve combination synergy tests (Example 1); assay type: cell-based
Procedure: The MIC (minimum inhibitory concentration) of phosphonomycin and each of the other antibiotics by itself was determined before the combination synergy experiment was begun, as follows: 2 ml. of a double strength solution in sterile distilled water of the highest strength to be tested (usually 1000γ) was added to a tube of double strength nutrient broth (NB) and mixed thoroughly. Two-fold serial dilutions were then made by transferring 2 ml. to the next tube (1 × NB) and so on for approximately 12 tubes. The tubes were inoculated with one drop each of a 1:50 dilution of a culture adjusted to a Lumetron 60 reading in NB + 0.2% yeast extract so as to provide a concentration of cells of approximately 25,000/ml. The tubes were then incubated at 37°C. and examined for growth at 24, 48 and 72 hours.
In the combination experiment, the MIC value obtained as described above was used as approximately the midpoint of the range to be tested for each of the two antibiotics of the combination. In a manner similar to the above, two-fold dilutions of the first substance in the combination were made except that 1.8 ml. volumes were used and a 2.2 × strength solution of both the antibiotic and the NB were made. […]

SMILES: C[C@@H]1O[C@@H]1P(=O)(O)O [Phosphonomycin, (-) (cis-1,2-epoxypropyl)phosphonic acid]
- Phosphonomycin MIC in presence of MIC/4 of 2nd subst. (Staphylococcus aureus): 15.6 µg/mL and 7.8 µg/mL
- antagonism by the combination of antibiotics [1]: in no case was there any evidence of antagonism
- tests in which potentiating effect of phosphonomycin is observed [1]: eight of the twelve tests
